The values that follow come from patent US20090270390A1, “PYRIMIDINE DERIVATIVES” (AstraZeneca, priority 2006, published 2009).

One experiment deals with T1, p110α Type Ia human PI3K (Homo sapiens, UniProt P42336).
T1 construct: full length DNA of each of the p110α, p110β and p110δ Type Ia human PI3K p110 isoforms; 6-His; made in house; Grp1 PH domain made in E. coli
The experiment is described as follows: In vitro PI3K enzyme assay (AlphaScreen), Test (a). Type of experiment: biochemical. The following applies: read-out: IC50 versus p110α Type Ia human PI3K. An excerpt:
The assay used AlphaScreen technology (Gray et al., Analytical Biochemistry, 2003, 313: 234-245) to determine the ability of test compounds to inhibit phosphorylation by recombinant Type I PI3K enzymes of the lipid PI(4,5)P2.
DNA fragments encoding human PI3K catalytic and regulatory subunits were isolated from cDNA libraries using standard molecular biology and PCR cloning techniques. The selected DNA fragments were used to generate baculovirus expression vectors. In particular, full length DNA of each of the p110α, p110β and p110δ Type Ia human PI3K p110 isoforms (EMBL Accession Nos. HSU79143, S67334, Y10055 for p110α, p110β and p110δ respectively) were sub-cloned into a pDEST10 vector (Invitrogen Limited, Fountain Drive, Paisley, UK). The vector is a Gateway-adapted version of Fastbac 1 containing a 6-His epitope tag. […]
Biotinylated-DiC8-PI(3,4,5)P3 (50 nM; Cell Signals Inc., Catalogue No. 107), recombinant purified GST-Grp1 PH protein (2.5 nM) and AlphaScreen Anti-GST donor and acceptor beads (100 ng; Packard Bioscience Limited, Station Road, Pangbourne, Berkshire, UK, Catalogue No. 6760603M) were added and the assay plates were left for about 5 to 20 hours at room temperature in the dark. The resultant signals arising from laser light excitation at 680 nm were read using a Packard AlphaQuest instrument. […]

Experiment [1] has as its system phosphorylation of Serine 473 in Akt in MDA-MB-468 human breast adenocarcinoma cell line. The experiment is described as follows: In vitro phospho-Ser473 Akt assay, Test (c). Type of experiment: cell-based. The conditions noted are these: MDA-MB-468 cells, read-out: IC50 (inhibition of Serine 473 phosphorylation in Akt). The protocol:
This assay determines the ability of test compounds to inhibit phosphorylation of Serine 473 in Akt as assessed using Acumen Explorer technology (TTP LabTech Limited, Royston, Herts, SG8 6EE, UK), a plate reader that can be used to rapidly quantitate features of images generated by laser-scanning.
A MDA-MB-468 human breast adenocarcinoma cell line (LGC Promochem, Teddington, Middlesex, UK, Catalogue No. HTB-132) was routinely maintained at 37° C. with 5% CO2 up to a confluency of 70-90% in DMEM containing 10% FCS and 1% L-glutamine.
For the assay, the cells were detached from the culture flask using ‘Accutase’ (Innovative Cell Technologies Inc., San Diego, Calif., USA; Catalogue No. AT104) using standard tissue culture methods and resuspended in media to give 5.5×10^4 cells per ml. Aliquots (90 μl) were seeded into each of the inner 60 wells of a black ‘Costar’ 96-well plate (Corning Inc., NY, USA; Catalogue No. 3904) to give a density of ˜5000 cells per well. Aliquots (90 μl) of culture media were placed in the outer wells to prevent edge effects. [An alternative cell handling procedure involved the maintenance of the cells in a ‘SelecT’ robotic device (The Automation Partnership, Royston, Herts SG8 5WY, UK). Cells were resuspended in media to give 5×10^4 cells per ml. Aliquots (100 μl) were seeded into the wells of a black ‘Costar’ 96-well plate.] […]

pIC50: −log10 of the molar value.

T1 sequence (P42336 whole entry, the tested form may be a part, canonical isoform): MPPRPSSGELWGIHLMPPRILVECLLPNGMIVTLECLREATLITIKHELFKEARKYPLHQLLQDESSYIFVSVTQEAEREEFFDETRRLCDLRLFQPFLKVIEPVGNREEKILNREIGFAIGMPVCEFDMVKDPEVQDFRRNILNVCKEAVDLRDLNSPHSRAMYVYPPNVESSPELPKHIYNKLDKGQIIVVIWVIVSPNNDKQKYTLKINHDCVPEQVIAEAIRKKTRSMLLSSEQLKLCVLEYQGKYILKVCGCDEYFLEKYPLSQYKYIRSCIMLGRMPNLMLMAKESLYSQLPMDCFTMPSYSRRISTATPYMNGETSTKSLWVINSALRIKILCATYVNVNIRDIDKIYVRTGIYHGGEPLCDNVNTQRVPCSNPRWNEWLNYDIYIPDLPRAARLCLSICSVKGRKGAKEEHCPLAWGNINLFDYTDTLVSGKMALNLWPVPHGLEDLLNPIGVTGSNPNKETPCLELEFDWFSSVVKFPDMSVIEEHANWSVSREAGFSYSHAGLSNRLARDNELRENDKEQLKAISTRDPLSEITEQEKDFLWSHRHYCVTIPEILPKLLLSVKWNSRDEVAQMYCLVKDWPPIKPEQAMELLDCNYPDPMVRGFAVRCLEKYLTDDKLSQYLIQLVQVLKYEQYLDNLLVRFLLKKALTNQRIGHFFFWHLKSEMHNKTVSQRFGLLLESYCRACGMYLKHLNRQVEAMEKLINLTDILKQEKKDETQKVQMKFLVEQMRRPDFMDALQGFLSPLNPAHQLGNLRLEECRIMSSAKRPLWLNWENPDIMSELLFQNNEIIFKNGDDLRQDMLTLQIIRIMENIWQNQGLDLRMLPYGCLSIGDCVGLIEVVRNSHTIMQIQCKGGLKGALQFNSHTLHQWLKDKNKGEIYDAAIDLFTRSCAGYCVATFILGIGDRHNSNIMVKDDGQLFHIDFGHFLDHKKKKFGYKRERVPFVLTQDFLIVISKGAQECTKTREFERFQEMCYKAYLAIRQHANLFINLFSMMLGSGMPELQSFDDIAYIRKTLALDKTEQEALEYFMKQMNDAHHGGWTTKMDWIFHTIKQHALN
T1 sequence (P27986 whole entry partner, the tested form may be a part, canonical isoform): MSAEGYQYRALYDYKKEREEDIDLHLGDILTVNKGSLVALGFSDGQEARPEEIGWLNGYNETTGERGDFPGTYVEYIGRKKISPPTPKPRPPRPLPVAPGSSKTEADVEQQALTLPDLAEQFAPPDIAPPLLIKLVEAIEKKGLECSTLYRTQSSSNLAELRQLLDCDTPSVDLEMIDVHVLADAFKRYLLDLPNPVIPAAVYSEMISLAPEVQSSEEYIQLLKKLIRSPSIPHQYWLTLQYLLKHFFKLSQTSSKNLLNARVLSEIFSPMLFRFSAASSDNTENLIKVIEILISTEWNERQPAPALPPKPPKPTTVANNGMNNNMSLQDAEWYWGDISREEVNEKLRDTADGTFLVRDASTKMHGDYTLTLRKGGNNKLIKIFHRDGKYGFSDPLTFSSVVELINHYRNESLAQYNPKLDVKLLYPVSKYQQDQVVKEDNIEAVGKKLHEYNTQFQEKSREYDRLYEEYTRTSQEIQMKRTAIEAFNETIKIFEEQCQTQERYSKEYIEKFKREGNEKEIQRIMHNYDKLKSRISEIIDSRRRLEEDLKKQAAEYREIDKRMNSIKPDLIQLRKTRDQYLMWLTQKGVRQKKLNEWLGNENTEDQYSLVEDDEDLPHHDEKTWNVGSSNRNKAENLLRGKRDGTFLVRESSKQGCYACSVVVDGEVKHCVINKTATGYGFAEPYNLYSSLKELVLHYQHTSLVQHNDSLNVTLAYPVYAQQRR

In general, pIC50 refers to −log10 of the IC50, conventionally taken in molar units. With `NCC(=O)N1CCN(c2cc(N3CCOCC3)nc(-n3c(C(F)F)nc4ccccc43)n2)CC1` [Example 1, 2-(2-difluoromethylbenzimidazol-1-yl)-4-(4-glycylpiperazin-1-yl)-6-morpholinopyrimidine], the pIC50 on p110α Type Ia human PI3K was approximately 7.00; in experiment [1] it was approximately 8.00.
